Test results taken from the NIST ThermoML archive (doi:10.1021/acs.jced.8b00662).

Experiment: xn = mol fraction of the nth substance listed
Conditions: 100 kPa, Liquid; for viscosity: Falling or rolling sphere viscometry; for mass density: Vibrating tube method

OCC1CC1 [cyclopropylmethanol] + c1ccc2c(c1)CCCC2
Conditions | mass density [kg/m3] | viscosity [mPa·s]
293.15 K, x2 = 0 | 913.02 | 3.988
293.15 K, x2 = 0.0993 | 921.89 | 3.498
293.15 K, x2 = 0.1972 | 929.26 | 3.134
293.15 K, x2 = 0.3008 | 936.02 | 2.837
293.15 K, x2 = 0.3978 | 941.84 | 2.622
293.15 K, x2 = 0.4986 | 947.21 | 2.449
293.15 K, x2 = 0.6031 | 952.27 | 2.318
293.15 K, x2 = 0.7031 | 956.72 | 2.229
293.15 K, x2 = 0.7981 | 960.63 | 2.182
293.15 K, x2 = 0.901 | 964.72 | 2.164
298.15 K, x2 = 0 | 908.96 | 3.455
298.15 K, x2 = 0.0993 | 917.77 | 3.039
298.15 K, x2 = 0.1972 | 925.12 | 2.734
298.15 K, x2 = 0.3008 | 931.86 | 2.49
298.15 K, x2 = 0.3978 | 937.67 | 2.313
298.15 K, x2 = 0.4986 | 943.05 | 2.173
298.15 K, x2 = 0.6031 | 948.12 | 2.068
298.15 K, x2 = 0.7031 | 952.59 | 1.997
298.15 K, x2 = 0.7981 | 956.53 | 1.963
298.15 K, x2 = 0.901 | 960.66 | 1.952
303.15 K, x2 = 0 | 904.87 | 3.009
303.15 K, x2 = 0.0993 | 913.62 | 2.656
303.15 K, x2 = 0.1972 | 920.94 | 2.402
303.15 K, x2 = 0.3008 | 927.67 | 2.2
303.15 K, x2 = 0.3978 | 933.47 | 2.053
303.15 K, x2 = 0.4986 | 938.85 | 1.94
303.15 K, x2 = 0.6031 | 943.94 | 1.855
303.15 K, x2 = 0.7031 | 948.44 | 1.8
303.15 K, x2 = 0.7981 | 952.41 | 1.774
303.15 K, x2 = 0.901 | 956.59 | 1.77
308.15 K, x2 = 0 | 900.74 | 2.635
308.15 K, x2 = 0.0993 | 909.43 | 2.338
308.15 K, x2 = 0.1972 | 916.73 | 2.123
308.15 K, x2 = 0.3008 | 923.44 | 1.958
308.15 K, x2 = 0.3978 | 929.24 | 1.836
308.15 K, x2 = 0.4986 | 934.63 | 1.747
308.15 K, x2 = 0.6031 | 939.74 | 1.675
308.15 K, x2 = 0.7031 | 944.26 | 1.633
308.15 K, x2 = 0.7981 | 948.28 | 1.613
308.15 K, x2 = 0.901 | 952.52 | 1.618
313.15 K, x2 = 0 | 896.59 | 2.321
313.15 K, x2 = 0.0993 | 905.22 | 2.068
313.15 K, x2 = 0.1972 | 912.49 | 1.889
313.15 K, x2 = 0.3008 | 919.19 | 1.754
313.15 K, x2 = 0.3978 | 925 | 1.651
313.15 K, x2 = 0.4986 | 930.4 | 1.579
313.15 K, x2 = 0.6031 | 935.53 | 1.521
313.15 K, x2 = 0.7031 | 940.09 | 1.491
313.15 K, x2 = 0.7981 | 944.15 | 1.474
313.15 K, x2 = 0.901 | 948.45 | 1.485
318.15 K, x2 = 0 | 892.38 | 2.054
318.15 K, x2 = 0.0993 | 900.96 | 1.84
318.15 K, x2 = 0.1972 | 908.2 | 1.688
318.15 K, x2 = 0.3008 | 914.89 | 1.577
318.15 K, x2 = 0.3978 | 920.7 | 1.492
318.15 K, x2 = 0.4986 | 926.13 | 1.433
318.15 K, x2 = 0.6031 | 931.29 | 1.387
318.15 K, x2 = 0.7031 | 935.88 | 1.366
318.15 K, x2 = 0.7981 | 939.99 | 1.355
318.15 K, x2 = 0.901 | 944.36 | 1.369
323.15 K, x2 = 0 | 888.17 | 1.825
323.15 K, x2 = 0.0993 | 896.69 | 1.644
323.15 K, x2 = 0.1972 | 903.9 | 1.517
323.15 K, x2 = 0.3008 | 910.59 | 1.423
323.15 K, x2 = 0.3978 | 916.41 | 1.355
323.15 K, x2 = 0.4986 | 921.85 | 1.305
323.15 K, x2 = 0.6031 | 927.06 | 1.271
323.15 K, x2 = 0.7031 | 931.69 | 1.254
323.15 K, x2 = 0.7981 | 935.85 | 1.235
323.15 K, x2 = 0.901 | 940.3 | 1.263
328.15 K, x2 = 0 | 883.86 | 1.629
328.15 K, x2 = 0.0993 | 892.34 | 1.476
328.15 K, x2 = 0.1972 | 899.54 | 1.369
328.15 K, x2 = 0.3008 | 906.23 | 1.291
328.15 K, x2 = 0.3978 | 912.06 | 1.22
328.15 K, x2 = 0.4986 | 917.54 | 1.195
328.15 K, x2 = 0.6031 | 922.78 | 1.169
328.15 K, x2 = 0.7031 | 927.49 | 1.156
328.15 K, x2 = 0.7981 | 931.68 | 1.157
328.15 K, x2 = 0.901 | 936.23 | 1.174
333.15 K, x2 = 0 | 879.52 | 1.46
333.15 K, x2 = 0.0993 | 887.95 | 1.331
333.15 K, x2 = 0.1972 | 895.13 | 1.241
333.15 K, x2 = 0.3008 | 901.83 | 1.176
333.15 K, x2 = 0.3978 | 907.69 | 1.131
333.15 K, x2 = 0.4986 | 913.2 | 1.1
333.15 K, x2 = 0.6031 | 918.5 | 1.08
333.15 K, x2 = 0.7031 | 923.23 | 1.071
333.15 K, x2 = 0.7981 | 927.51 | 1.076
333.15 K, x2 = 0.901 | 932.14 | 1.094
338.15 K, x2 = 0 | 875.1 | 1.316
338.15 K, x2 = 0.0993 | 883.49 | 1.205
338.15 K, x2 = 0.1972 | 890.66 | 1.13
338.15 K, x2 = 0.3008 | 897.37 | 1.078
338.15 K, x2 = 0.3978 | 903.28 | 1.041
338.15 K, x2 = 0.4986 | 908.82 | 1.015
338.15 K, x2 = 0.6031 | 914.15 | 1.004
338.15 K, x2 = 0.7031 | 918.94 | 0.996
338.15 K, x2 = 0.7981 | 923.3 | 1.003
338.15 K, x2 = 0.901 | 928.03 | 1.024
343.15 K, x2 = 0 | 870.62 | 1.19
343.15 K, x2 = 0.0993 | 878.98 | 1.095
343.15 K, x2 = 0.1972 | 886.15 | 1.033
343.15 K, x2 = 0.3008 | 892.87 | 0.99
343.15 K, x2 = 0.3978 | 898.8 | 0.961
343.15 K, x2 = 0.4986 | 904.39 | 0.941
343.15 K, x2 = 0.6031 | 909.78 | 0.933
343.15 K, x2 = 0.7031 | 914.63 | 0.931
343.15 K, x2 = 0.7981 | 919.07 | 0.941
343.15 K, x2 = 0.901 | 923.91 | 0.961
